Assay results published in ChEMBL document CHEMBL1201862, “PubChem BioAssay data set” (2004).
Activity calls are given as the source filed them.

Legend:
[1] = target: Sphingosine 1-phosphate receptor 2 (Homo sapiens, UniProt O95136); assay: Dose Response Cell Based Assay for Agonists of the S1P2 Receptor of Purchased Analogues. [Related pubchem assays: 729, 843, 854, 736 ]; type: functional
[2] = inhibitors of Bluetongue virus cytopathic effect, confirmation, arbovirus, BSR cells (AID 1250); type: functional;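 note: protection from viral cytopathic effect measured as cell viability by ATP luminescence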
[3] = inhibitors of firefly luciferase expression or activity, dose response, H4 neuroglioma cells, luminescence (AID 1990); type: functional, cell-based
[4] = MC4R antagonists, dose response, counter-screen for LGR2 antagonist project, cell-based, plate reader, cherry pick (AID 743444); type: functional;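 note: transfected HEK 293 cells stimulated with alpha-MSH peptide; potency of inhibitors of the alpha-MSH evoked signal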
[5] = A549 cell cytotoxicity, dose response, cytotoxicity control, plate reader, cherry-pick, antagonist series (AID 743412); type: functional, cell-based
[6] = HEK293 cell cytotoxicity, dose response, cytotoxicity control, plate reader, cherry-picked samples (AID 743446); type: functional, cell-based
[7] = LGR2 antagonists, dose response, cell-based, HEK293, CRE-luciferase reporter, cherry pick, set 2 (AID 743343); type: functional;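 note: transfected cells were stimulated with diluted bursicon conditioned medium after compound addition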
[8] = Luminescence Cell-Based Dose Response HTS to Identify Inhibitors of 5'UTR Stem-Loop Driven Prion Protein mRNA Translation in H4 Neuroglioblastoma Cells. [Related pubchem assays: 1827 (Project Summary), 1813 (Primary HTS)]; type: functional
[9] = target: T1, Heat shock factor protein 1 (Mus musculus, UniProt P38532); assay: inhibition of MG132-induced HSE-luciferase signal, confirmation, cell-based, NIH3T3, luminescence, dose retest (AID 2382); type: functional;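 note: NIH3T3 fibroblasts with HSF1-driven luciferase reporter stressed by proteasome inhibitor MG132; luminescence from HSF1-driven luciferase expression after 8 hours of MG132 stress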
T1 sequence (P38532 whole entry): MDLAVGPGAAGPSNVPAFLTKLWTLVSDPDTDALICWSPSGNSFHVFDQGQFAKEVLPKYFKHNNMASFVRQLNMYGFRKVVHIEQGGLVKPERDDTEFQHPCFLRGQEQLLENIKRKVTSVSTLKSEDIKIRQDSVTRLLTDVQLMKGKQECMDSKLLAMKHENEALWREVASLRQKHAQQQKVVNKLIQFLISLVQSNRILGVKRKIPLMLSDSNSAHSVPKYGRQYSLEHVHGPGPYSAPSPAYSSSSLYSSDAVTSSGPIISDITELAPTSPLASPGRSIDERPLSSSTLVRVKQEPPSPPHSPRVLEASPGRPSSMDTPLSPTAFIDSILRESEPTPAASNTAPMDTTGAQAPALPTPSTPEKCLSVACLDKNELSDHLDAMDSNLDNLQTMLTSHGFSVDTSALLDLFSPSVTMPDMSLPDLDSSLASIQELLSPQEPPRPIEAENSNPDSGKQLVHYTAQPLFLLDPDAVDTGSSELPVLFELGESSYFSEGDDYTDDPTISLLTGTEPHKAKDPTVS

[10] = Luminescence-based counterscreen assay for KLF5 inhibitors: dose response cell-based high throughput screening assay to identify cytotoxic compounds using the IEC-6 intestinal epithelial cell line. [Related pubchem assays: 1700 (Primary screen.), 1834 (Confirmation screen.), 1858 (Summary AID.), 1905 (Counterscreen.)]; type: functional
Bcl-2-like protein 10 = target: T2, Bcl-2-like protein 10 (Homo sapiens, UniProt Q9HD36); assay: displacers of TR3 peptide from Bcl-B, primary screen, selectivity assay for Bfl-1 inhibitor project, biochemical, fluorescence polarization, FITC-TR3 peptide (AID 748);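 note: fluorescence polarization from a fluorescein-labelled TR3 peptide binding purified Bcl-B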
T2 sequence (Q9HD36 whole entry): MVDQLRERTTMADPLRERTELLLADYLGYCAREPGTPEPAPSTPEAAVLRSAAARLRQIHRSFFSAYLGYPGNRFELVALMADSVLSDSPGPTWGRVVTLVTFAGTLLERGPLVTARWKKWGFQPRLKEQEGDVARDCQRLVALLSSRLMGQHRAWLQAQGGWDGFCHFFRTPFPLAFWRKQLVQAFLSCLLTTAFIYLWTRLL

SUMO E1/E2 = SUMO E1/E2 (Homo sapiens, UniProt P63279+Q9UBE0+Q9UBT2); assay: SAR analysis of SUMOylation using HTRF in an in-Vitro dose response assay. [Related pubchem assays (depositor defined):AID2006, AID2011, AID2018, AID2069, AID2658]; type: functional
Estrogen receptor beta [11] = target: T3, Estrogen receptor beta (Homo sapiens, UniProt Q92731); assay: ERβ–SRC-3 coactivator interaction inhibitors, confirmation, orthogonal assay, biochemical, ELISA, streptavidin-HRP readout (AID 1060)
T3 sequence (Q92731 whole entry): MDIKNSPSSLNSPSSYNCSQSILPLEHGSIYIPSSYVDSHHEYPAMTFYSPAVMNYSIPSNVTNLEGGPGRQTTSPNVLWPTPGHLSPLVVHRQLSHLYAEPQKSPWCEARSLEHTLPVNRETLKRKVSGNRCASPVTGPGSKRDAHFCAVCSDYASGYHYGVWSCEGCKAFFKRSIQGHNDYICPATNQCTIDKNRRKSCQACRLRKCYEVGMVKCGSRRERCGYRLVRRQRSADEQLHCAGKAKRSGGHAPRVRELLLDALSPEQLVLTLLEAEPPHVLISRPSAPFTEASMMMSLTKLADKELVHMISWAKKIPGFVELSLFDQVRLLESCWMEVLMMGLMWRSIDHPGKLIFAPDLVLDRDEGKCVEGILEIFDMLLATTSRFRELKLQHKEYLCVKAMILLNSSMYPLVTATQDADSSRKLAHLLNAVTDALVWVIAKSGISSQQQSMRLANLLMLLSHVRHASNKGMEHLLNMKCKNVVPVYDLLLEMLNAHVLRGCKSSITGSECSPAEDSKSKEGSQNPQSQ

Estrogen receptor beta [12] = target: T3, Estrogen receptor beta
[13] = target: T4, Voltage-gated N-type calcium channel alpha-1B subunit/Amyloid beta A4 precursor protein-binding family A member 1 (Homo sapiens, UniProt Q00975+Q02410); assay: disruptors of Mint-PDZ/N-type channel peptide interaction – biochemical, HTRF, set 2, SAR follow-up (AID 434980); type: functional
T4 sequence (Q00975 whole entry): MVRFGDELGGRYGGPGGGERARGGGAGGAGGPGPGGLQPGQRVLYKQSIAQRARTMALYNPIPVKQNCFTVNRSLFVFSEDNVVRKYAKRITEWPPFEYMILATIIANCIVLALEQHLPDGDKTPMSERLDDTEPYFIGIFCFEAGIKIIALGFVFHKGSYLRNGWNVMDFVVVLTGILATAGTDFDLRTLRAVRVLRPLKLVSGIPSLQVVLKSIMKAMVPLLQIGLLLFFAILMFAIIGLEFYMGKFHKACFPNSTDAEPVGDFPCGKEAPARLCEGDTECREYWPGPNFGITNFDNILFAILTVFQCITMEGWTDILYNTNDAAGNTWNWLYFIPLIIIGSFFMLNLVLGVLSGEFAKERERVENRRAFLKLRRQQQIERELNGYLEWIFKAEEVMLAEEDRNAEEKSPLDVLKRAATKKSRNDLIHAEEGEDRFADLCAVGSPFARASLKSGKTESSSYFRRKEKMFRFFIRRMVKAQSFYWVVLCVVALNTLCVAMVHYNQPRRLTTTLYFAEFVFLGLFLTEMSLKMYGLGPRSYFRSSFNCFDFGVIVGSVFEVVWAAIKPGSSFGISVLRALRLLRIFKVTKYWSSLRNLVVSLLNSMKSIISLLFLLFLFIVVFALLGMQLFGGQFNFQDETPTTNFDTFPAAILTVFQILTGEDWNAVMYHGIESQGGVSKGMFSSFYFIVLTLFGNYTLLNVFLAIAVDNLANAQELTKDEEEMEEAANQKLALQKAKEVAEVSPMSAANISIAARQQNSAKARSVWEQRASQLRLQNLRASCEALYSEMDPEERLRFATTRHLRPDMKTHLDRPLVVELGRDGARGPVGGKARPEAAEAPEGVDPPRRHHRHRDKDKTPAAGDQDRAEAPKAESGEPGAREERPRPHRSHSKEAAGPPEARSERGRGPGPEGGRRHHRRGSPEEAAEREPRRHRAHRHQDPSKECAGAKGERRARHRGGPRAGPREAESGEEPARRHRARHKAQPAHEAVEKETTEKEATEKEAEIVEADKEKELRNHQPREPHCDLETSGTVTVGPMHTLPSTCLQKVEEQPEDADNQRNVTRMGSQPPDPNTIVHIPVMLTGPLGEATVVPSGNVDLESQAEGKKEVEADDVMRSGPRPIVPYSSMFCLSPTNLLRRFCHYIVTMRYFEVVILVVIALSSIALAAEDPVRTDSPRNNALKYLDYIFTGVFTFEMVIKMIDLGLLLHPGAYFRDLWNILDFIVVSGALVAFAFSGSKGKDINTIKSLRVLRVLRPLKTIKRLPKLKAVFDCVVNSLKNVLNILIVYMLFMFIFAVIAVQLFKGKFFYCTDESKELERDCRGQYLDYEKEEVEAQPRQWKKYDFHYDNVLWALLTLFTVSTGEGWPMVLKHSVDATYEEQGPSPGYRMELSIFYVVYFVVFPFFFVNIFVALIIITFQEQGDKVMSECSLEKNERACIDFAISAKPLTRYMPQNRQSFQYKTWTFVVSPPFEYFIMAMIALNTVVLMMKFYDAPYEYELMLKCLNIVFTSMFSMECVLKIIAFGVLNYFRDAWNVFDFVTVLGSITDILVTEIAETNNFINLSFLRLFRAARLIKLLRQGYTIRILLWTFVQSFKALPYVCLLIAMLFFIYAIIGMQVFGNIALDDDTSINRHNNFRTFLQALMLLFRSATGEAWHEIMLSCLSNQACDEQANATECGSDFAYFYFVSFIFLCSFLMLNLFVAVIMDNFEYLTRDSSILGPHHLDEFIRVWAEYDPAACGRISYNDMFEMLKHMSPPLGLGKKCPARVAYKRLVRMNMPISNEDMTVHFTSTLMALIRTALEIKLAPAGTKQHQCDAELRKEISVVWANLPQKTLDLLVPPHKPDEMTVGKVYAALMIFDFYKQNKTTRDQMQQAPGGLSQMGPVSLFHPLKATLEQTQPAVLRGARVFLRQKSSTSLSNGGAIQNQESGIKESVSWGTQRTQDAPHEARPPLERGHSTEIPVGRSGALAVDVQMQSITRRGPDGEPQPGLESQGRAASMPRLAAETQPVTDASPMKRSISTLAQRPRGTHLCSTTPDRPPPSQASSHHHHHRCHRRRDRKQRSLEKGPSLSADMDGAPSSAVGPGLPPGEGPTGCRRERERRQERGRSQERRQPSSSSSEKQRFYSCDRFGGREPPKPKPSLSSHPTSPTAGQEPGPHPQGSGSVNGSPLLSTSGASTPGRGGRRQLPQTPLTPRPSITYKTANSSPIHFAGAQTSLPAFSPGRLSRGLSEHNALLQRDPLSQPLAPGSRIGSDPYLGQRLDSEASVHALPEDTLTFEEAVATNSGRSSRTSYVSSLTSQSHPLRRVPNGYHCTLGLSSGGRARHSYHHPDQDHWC
T4 sequence (Q02410 whole entry): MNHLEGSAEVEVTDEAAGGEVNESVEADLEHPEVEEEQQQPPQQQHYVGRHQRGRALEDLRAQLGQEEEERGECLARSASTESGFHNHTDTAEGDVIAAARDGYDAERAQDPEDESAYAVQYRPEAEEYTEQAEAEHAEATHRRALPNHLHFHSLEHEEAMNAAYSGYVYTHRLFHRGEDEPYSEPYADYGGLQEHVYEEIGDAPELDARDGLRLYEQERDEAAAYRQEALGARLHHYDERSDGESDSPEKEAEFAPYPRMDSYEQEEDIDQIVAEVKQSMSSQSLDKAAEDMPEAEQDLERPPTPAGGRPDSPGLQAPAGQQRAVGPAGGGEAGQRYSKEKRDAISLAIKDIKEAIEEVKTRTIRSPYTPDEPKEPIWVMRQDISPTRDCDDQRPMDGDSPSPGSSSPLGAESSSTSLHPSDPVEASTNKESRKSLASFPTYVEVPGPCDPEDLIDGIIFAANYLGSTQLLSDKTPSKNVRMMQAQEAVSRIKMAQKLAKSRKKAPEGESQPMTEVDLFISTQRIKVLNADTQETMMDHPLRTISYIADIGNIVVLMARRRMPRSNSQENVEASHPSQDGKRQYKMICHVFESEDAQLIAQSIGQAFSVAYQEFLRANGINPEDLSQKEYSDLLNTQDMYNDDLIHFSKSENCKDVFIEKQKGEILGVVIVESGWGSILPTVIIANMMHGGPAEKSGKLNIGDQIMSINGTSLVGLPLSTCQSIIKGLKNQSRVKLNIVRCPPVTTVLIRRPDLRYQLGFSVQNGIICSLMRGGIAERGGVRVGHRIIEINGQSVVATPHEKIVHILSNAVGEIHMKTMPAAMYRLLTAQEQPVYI

[14] = target: T4, Voltage-gated N-type calcium channel alpha-1B subunit/Amyloid beta A4 precursor protein-binding family A member 1; assay: disruptors of Mint-PDZ/N-type channel peptide interaction – biochemical, HTRF, SAR follow-up (AID 2489); type: functional
[15] = microbe, parasite or virus in culture; type: functional; details: Mycobacterium tuberculosis
H4 = assay: Luminescence Cell-Based Dose Response HTS to Identify Activators of 5'UTR Stem-Loop Driven Prion Protein mRNA Translation in H4 Neuroglioblastoma Cells. [Related pubchem assays: 1829 (Project Summary), 1814 (Primary HTS)]; type: functional; details: Homo sapiens
[16] = HEp-2 cell cytotoxicity, dose response, cytotoxicity control for RSV inhibitor project, HTS (AID 2410); type: functional; details: human respiratory syncytial virus
[17] = Luminescence Cell-Based Dose Confirmation HTS to Identify Activators of 5'UTR Stem-Loop Driven Alpha-Synuclein mRNA Translation in H4 Neuroglioblastoma Cells. [Related pubchem assays: 1829 (Project Summary), 1814 (Primary HTS)]; type: functional
[18] = Luminescence Cell-Based Dose Response HTS to Identify Activators of Luciferase Translation or Activity in H4 […] Cells. [Related pubchem assays: 1829 (Project Summary), 1814 (Primary HTS)]; type: functional
HEK293 [19] = assay: Fluorescence-based counterscreen for potentiators or agonists of NPY-Y2: cell-based high-throughput dose response assay to identify inhibitors of cyclic nucleotide gated ion channel (CNGC) activity. In this assay, the parental HEK293 cell line transfected with a cyclic-nucleotide gated ion channel (CNGC)-based cAMP sensor is used to measure inhibition of isoproterenol-induced CNGC activity by test compound.; type: functional; details: Homo sapiens
[20] = target: T5, Neuropeptide Y receptor type 2 (Homo sapiens, UniProt P49146); assay: Fluorescence-based cell-based high-throughput dose response assay for agonists of NPY-Y2. [Related pubchem assays: 1703 (Screening assay (CNGC inhibitors).), 1359 (Screening assay (NPY-Y2 potentiators or agonists).), 1304 (Screening assay (NPY-Y1 potentiators or agonists).), 1710 (Screening assay (NPY-Y2 agonists).), 1791 (Summary AID.)]; type: functional
T5 sequence (P49146 whole entry): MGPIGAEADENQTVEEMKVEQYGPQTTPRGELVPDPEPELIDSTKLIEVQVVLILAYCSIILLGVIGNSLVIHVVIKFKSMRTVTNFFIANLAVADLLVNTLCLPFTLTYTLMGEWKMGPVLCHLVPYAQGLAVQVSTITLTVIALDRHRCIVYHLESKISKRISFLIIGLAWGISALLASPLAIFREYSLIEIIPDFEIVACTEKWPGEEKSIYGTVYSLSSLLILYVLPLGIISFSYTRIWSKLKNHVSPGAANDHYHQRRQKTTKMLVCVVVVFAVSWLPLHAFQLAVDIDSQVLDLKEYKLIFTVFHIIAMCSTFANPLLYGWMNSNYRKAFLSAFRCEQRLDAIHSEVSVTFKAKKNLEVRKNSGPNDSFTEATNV

[21] = target: T6, Neuropeptide Y receptor type 1 (Homo sapiens, UniProt P25929); assay: Fluorescence-based counterscreen for agonists of NPY-Y2: cell-based high-throughput dose response assay for agonists of NPY-Y1.; type: functional
T6 sequence (P25929 whole entry): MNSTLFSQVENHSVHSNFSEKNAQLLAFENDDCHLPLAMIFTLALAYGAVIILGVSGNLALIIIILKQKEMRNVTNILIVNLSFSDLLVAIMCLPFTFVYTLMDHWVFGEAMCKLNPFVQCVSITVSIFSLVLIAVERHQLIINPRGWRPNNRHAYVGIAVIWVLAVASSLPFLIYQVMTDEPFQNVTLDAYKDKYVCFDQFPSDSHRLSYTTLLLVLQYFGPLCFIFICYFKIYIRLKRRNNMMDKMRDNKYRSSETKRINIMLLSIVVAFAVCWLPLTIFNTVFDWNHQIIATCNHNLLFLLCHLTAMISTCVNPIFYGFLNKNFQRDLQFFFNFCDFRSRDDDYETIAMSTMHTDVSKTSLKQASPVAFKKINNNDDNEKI

cells [22] = type: functional, cell-based
Nonstructural protein 1 = Nonstructural protein 1 (Influenza A virus, UniProt Q194T2); type: functional, Influenza A virus (A/California/07/2009(H1N1))
Nonstructural protein 1, sequence (Q194T2 whole entry): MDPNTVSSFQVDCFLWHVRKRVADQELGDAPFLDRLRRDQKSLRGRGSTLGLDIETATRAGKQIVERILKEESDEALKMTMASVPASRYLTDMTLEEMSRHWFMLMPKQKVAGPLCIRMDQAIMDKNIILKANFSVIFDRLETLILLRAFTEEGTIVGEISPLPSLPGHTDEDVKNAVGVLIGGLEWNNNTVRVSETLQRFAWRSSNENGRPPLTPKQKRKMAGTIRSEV

[23] = insulin promoter down-regulators in MIN6 cells, imaging, high-content screening, mouse beta cells (AID 1628); type: functional
[24] = NIH-3T3 fibroblast cytotoxicity, dose response, cytotoxicity control, cell-based, fluorescence, Alamar Blue, secondary assay (AID 2327); type: functional;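 note: NIH-3T3 mouse fibroblasts cultured with fluconazole at 8 µg/mL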
HEK293 [25] = assay: inhibitors of LMP1-driven NF-kB reporter, dose response, cell-based, HEK293, luciferase, cherry-pick (AID 588343); type: functional; details: Homo sapiens
[26] = HepG2 cell cytotoxicity, dose response, cytotoxicity control, plate reader, cherry-pick, antagonist series (AID 743416); type: functional, cell-based
[27] = C. albicans growth with fluconazole, confirmation, fluorescence, retest (AID 2467); type: functional, cell-based
cells [28] = type: functional, cell-based; remark: listed apart in the source
[29] = cytotoxicity in MIN6 insulinoma cells, dose response, cytotoxicity control, cell-based, mouse insulinoma (AID 2122); type: functional;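 note: confirmatory high-throughput counterscreen run to flag cytotoxic compounds; mouse MIN-6 beta cells carrying an insulin promoter eGFP reporter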
Mucolipin-3 = Mucolipin-3 (Homo sapiens, UniProt Q8TDD5); assay: Dose response cell-based high-throughput screening assay for agonists of the transient receptor potential channel ML3 (TRPML3). [Related pubchem assays: 1526, 1424, 1448 ]; type: functional
Mucolipin-3, sequence (Q8TDD5 whole entry): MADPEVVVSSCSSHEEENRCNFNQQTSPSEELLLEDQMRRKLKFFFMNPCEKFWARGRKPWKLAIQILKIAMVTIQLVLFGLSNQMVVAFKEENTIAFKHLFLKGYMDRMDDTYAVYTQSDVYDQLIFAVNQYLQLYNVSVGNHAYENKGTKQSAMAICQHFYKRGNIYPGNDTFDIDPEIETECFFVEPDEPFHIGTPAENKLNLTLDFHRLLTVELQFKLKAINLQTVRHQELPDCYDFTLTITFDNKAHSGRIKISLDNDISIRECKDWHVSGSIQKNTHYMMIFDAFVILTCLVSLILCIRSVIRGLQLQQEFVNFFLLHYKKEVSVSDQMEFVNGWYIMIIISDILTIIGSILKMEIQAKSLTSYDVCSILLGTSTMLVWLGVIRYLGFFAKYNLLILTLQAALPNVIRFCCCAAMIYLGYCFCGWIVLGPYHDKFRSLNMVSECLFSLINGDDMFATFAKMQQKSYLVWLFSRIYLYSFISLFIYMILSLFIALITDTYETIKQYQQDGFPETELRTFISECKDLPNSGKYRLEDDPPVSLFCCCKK

Ion channel NompC = Ion channel NompC (Danio rerio, UniProt Q7T1G6); assay: Fluorescence counterscreen assay for TRPML3 agonists: dose response cell-based high-throughput screening assay to identify agonists of the transient receptor potential channel N1 (TRPN1). [Related pubchem assays: 1526, 1424, 1448 ]; type: functional

Sphingosine 1-phosphate receptor 2, sequence (O95136 whole entry): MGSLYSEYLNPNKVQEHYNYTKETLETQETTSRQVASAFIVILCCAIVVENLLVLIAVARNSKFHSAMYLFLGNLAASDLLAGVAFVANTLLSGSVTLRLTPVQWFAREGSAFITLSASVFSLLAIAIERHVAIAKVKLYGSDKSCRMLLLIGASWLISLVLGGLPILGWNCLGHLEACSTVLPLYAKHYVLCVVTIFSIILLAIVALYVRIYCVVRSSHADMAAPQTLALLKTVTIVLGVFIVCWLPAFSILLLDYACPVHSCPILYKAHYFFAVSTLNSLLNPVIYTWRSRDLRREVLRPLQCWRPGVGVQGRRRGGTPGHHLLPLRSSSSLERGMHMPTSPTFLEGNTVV

## Cc1cc(C(=O)COC(=O)Cn2cnc3ccccc3c2=O)c(C)n1Cc1ccccc1
[1]
  EC50: > 30 µM (not active)

## CCOC(=O)c1cnc2c(-c3ccc(F)cc3)cnn2c1C(F)(F)F
[2]
  IC50: 23.1 µM (active)

## CC1CCN(c2ccc(-c3cccs3)nn2)CC1
[3]
  EC50: 8.6 µM (active)
[4]
  AC50: 1.43 µM (active)
[5]
  AC50: 29.4 µM (active)
[6]
  AC50: 30.9 µM (active)
[7]
  AC50: 0.851 µM (active)
[8]
  EC50: 10.4 µM (active)
[9]
  EC50: 2.78 µM (active)
[10]
  IC50: 37.5 µM (not active)

## O=C(Nc1ccccc1N1CCOCC1)c1cc(-c2ccco2)nc2ccccc12
Bcl-2-like protein 10
  IC50: 95.1 µM (inactive)
SUMO E1/E2
  IC50: 48.2 µM (active)
Estrogen receptor beta [11]
  IC50: 1.04 µM (not active)
Estrogen receptor beta [12]
  IC50: 3.78 µM (active)
[13]
  IC50: 9.81 µM (active)
[14]
  IC50: 39.3 µM (active)

## CCn1c2ccccc2c2cc(NC(=O)CN(C)CC(=O)Nc3ccc(N4CCOCC4)cc3)ccc21
[15]
  CC50: 37.5 µM (active)
H4
  EC50: > 120 µM (not active)
[16]
  CC50: 32.7 µM (active)
[17]
  EC50: > 120 µM (not active)
[18]
  EC50: > 120 µM (not active)
HEK293 [19]
  EC50: > 35.4 µM (not active)
[20]
  EC50: > 35.4 µM (not active)
[21]
  EC50: > 35.4 µM (not active)

## COc1cccc(/C=N/Nc2nccnc2Cl)c1O
Cells [22]
  EC50: 6.97 µM (active)
Nonstructural protein 1
  IC50: 7.59 µM (active)
[23]
  IC50: 3.57 µM (active)
[24]
  EC50: > 150 µM (inactive)
[4]
  AC50: 3.39 µM (active)
[5]
  AC50: 4.2 µM (active)
HEK293 [25]
  AC50: 2.73 µM (active)
[26]
  AC50: 2.48 µM (active)
[27]
  EC50: 1.52 µM (active)
[6]
  AC50: 6.83 µM (active)
Cells [28]
  EC50: > 350 µM (not active)
[7]
  AC50: 3.7 µM (active)
[29]
  IC50: 3.97 µM (active)
[10]
  IC50: 9.16 µM (active)

## CN(c1ccccc1)S(=O)(=O)c1cccc(Cl)c1Cl
Mucolipin-3
  EC50: 4.52 µM (active)
Ion channel NompC
  EC50: > 29.9 µM (not active)
